Results from ChEMBL document CHEMBL5365521, “Discovery of the Potent and Selective Inhaled Janus Kinase 1 Inhibitor AZD4604 and Its Preclinical Characterization” (J Med Chem, 2023).
≈ marks a conversion by molar mass, not a printed value. Calls of active or inactive are those of the source. No cut-off for these calls is given here.

Legend:
[1] = (§1) Inhibition of JAK/STAT signaling pathway in human CD14-positive cell monocytes isolated from human PBMC assessed as inhibition of IL-13 stimulated STAT6 phosphorylation preincubated for 20 to 60 mins followed by IL-13 stimulation measured after 15 mins by flow cytometry analysis; assay type: cell-based
[2] = Inhibition of JAK/STAT signaling pathway in human CD4+ T cell assessed as inhibition of IL-4 stimulated STAT6 phosphorylation preincubated for 20 to 60 mins followed by IL-4 stimulation measured after 15 mins by flow cytometry analysis; assay type: cell-based
[3] = system: Th1 cell; assay: Inhibition of human naive Th1 cell differentiation assessed as decrease in IFNg production measured after 5 days by MSD assay; assay type: functional, cell-based; details: dose 1-10000 nM, time 5.0 day
[4] = Toxicity in human naive Th1 cell assessed as reduction in cell viability at 1 to 10000 nM; assay type: cell-based; details: 10 µM, dose 1-10000 nM
[5] = Toxicity in human CD4+ T cell assessed as reduction in cell viability measured after 5 days by eFluor780 staining based flow cytometry analysis; details: 120 h, dose 1-10000 nM, time 5 day
[6] = Drug uptake in lung of rat at 0.06 to 24.79 microg/kg via inhalation measured upto 24 hrs by LC-MS/MS analysis; assay type: ADME, tissue-based; details: in vivo, inhaled_or_intranasal, dose 0.06-24.79 µg/kg
[7] = Metabolic stability in human liver microsomes assessed as intrinsic clearance; assay type: ADME, Microsome; details: read-out: CLH
[8] = target: T1, Tyrosine-protein kinase JAK1 (Homo sapiens, UniProt P23458); assay: Inhibition of JAK1 in human CD14-positive cell monocytes isolated from human PBMC assessed as reduction in dendritic cells development measured after 5 days by flow cytometry analysis; assay type: cell-based; details: dose 10-1000 nM, time 5.0 day
[9] = Volume of distribution at steady state in Han Wistar rat at 0.5 mg/kg, iv; assay type: ADME, organism-based; details: in vivo, read-out: Vdss
[10] = Metabolic stability in human hepatocyte assessed as intrinsic clearance measured per 10^6 cells; assay type: ADME, cell-based; details: hepatocytes, read-out: CLH
[11] = Solubility in phosphate buffer at pH 7.4; assay type: physicochemical
[12] = Drug uptake in lung of rat at 0.020 micromol/kg, IT; assay type: ADME, tissue-based; details: in vivo, other, dose 0.02 µmol/kg
[13] = Volume of distribution at steady state in Han Wistar rat at 1 mg/kg, po or 0.5 mg/kg, iv; assay type: ADME, organism-based; details: in vivo
[14] = Inhibition of JAK/STAT signaling pathway in human CD14-positive cell monocytes isolated from human PBMC assessed as inhibition of IL-4 stimulated STAT6 phosphorylation preincubated for 20 to 60 mins followed by IL-4 stimulation measured after 15 mins by flow cytometry analysis; assay type: cell-based
[15] = target: T1, Tyrosine-protein kinase JAK1; assay: Inhibition of GST-tagged human recombinant JAK1 (866 to 1154 residues) expressed in insect cells
[16] = Inhibition of JAK/STAT signaling pathway in human U-937 cells assessed as inhibition of IL-4 stimulated STAT6 phosphorylation; assay type: cell-based
[17] = target: T1, Tyrosine-protein kinase JAK1; assay: Inhibition of JAK1 in human CD14-positive cell monocytes isolated from human PBMC assessed as reduction in mature dendritic phenotype by measuring CD11c expression level at 100 nM measured after 5 days by CD11c PE-CF594 staining based flow cytometry analysis; details: time 5.0 day
[18] = system: Th2 cell; assay: Inhibition of human naive Th2 cell differentiation assessed as decrease in IL-4 production measured after 5 days by MSD assay; assay type: functional, cell-based; details: dose 1-10000 nM, time 5.0 day
[19] = Toxicity in human naive Th2 cell assessed as reduction in cell viability at 1 to 10000 nM; assay type: cell-based; details: 10 µM, dose 1-10000 nM
[20] = system: Th17; assay: Inhibition of human memory-derived Th17 cell differentiation assessed as decrease in IL-17 production measured after 5 days by MSD assay; assay type: functional, cell-based; details: time 5.0 day
[21] = system: CD4+ T cell; assay: Antiinflammatory activity in human CD4+ T cell assessed as reduction in CD25 expression measured after 5 days by eFluor780 staining based flow cytometry analysis; assay type: functional; details: dose 1-10000 nM, time 5.0 day
[22] = Plasma protein binding in human assessed as free fraction; assay type: ADME, cell-free
[23] = system: Th2 cell; assay: Inhibition of human naive Th2 cell differentiation assessed as decrease in IL-5 production measured after 5 days by MSD assay; assay type: functional, cell-based; details: time 5.0 day
[24] = AUC(0 to 24 hrs) in rat at 0.020 micromol/kg, IT; assay type: ADME; parameters: dose 0.02 µmol/kg, route it; details: in vivo, 0.02 µmol/kg
[25] = Oral bioavailability in Han Wistar rat at 1 mg/kg; assay type: ADME, organism-based; details: in vivo
[26] = target: Non-receptor tyrosine-protein kinase TYK2 (Homo sapiens, UniProt P29597); assay: Inhibition of GST-tagged human recombinant TYK2 (833 to 1187 residues) expressed in insect cells
[27] = Metabolic stability in rat hepatocyte assessed as intrinsic clearance measured per 10^6 cells; assay type: ADME, cell-based; details: hepatocytes, read-out: CLH
[28] = system: Th2 cell; assay: Inhibition of human naive Th2 cell differentiation assessed as decrease in IL-13 production measured after 5 days by MSD assay; assay type: functional, cell-based; details: time 5.0 day
[29] = Thermodynamic solubility of the compound in phosphate buffer at pH 7.4 measured after 24 hrs by HPLC-MS analysis; assay type: physicochemical; details: read-out: Therm_solubility
[30] = Terminal half life in Han Wistar rat at 1 mg/kg, po; assay type: ADME, organism-based; details: in vivo, read-out: beta t1/2 (converted)
[31] = Distribution coefficient between 1-Octanol and aqueous phosphate buffer, logD of the compound at pH 7.4 by shake-flask method; assay type: physicochemical
[32] = target: T2, Tyrosine-protein kinase JAK3 (Homo sapiens, UniProt P52333); assay: Inhibition of GST-tagged human recombinant JAK3 (781 to 1124 residues) expressed in insect cells
T2 sequence (P52333 whole entry): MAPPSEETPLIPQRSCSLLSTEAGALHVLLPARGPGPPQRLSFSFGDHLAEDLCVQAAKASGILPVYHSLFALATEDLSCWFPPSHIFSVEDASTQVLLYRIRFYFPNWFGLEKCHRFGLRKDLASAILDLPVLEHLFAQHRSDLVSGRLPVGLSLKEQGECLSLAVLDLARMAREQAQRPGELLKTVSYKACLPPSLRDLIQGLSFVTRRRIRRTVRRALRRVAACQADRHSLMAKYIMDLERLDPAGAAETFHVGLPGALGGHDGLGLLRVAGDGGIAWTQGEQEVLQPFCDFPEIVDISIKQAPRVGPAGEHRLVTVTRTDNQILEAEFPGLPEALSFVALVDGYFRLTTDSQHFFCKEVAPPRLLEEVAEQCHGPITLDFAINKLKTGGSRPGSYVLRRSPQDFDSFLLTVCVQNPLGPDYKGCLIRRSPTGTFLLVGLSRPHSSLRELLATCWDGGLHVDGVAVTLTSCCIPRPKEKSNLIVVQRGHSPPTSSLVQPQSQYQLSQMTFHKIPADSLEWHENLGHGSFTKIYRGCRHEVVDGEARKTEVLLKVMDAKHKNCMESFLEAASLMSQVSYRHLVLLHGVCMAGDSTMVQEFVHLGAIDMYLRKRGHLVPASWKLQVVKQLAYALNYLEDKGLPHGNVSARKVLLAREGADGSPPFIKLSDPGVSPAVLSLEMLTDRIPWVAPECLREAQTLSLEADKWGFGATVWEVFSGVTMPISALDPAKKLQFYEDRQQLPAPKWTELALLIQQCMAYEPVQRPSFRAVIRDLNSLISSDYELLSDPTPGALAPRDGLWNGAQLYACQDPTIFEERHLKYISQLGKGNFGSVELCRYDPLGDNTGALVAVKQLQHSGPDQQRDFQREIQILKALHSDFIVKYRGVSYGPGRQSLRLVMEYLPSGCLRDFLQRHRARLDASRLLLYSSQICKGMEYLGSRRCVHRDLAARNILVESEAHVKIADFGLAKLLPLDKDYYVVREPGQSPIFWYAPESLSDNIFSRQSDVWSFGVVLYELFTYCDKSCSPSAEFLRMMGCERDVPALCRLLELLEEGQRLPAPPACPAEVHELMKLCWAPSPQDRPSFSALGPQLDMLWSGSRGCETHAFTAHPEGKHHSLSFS

[33] = Apparent permeability of compound across apical to basolateral side in human Caco-2 cells at pH 7.4; assay type: ADME, cell-based; details: Caco-2, pH 7.4
[34] = Toxicity in human memory-derived Th17 cells assessed as reduction in cell viability at 1 to 10000 nM; assay type: cell-based; details: th17, 10 µM, dose 1-10000 nM
[35] = target: T1, Tyrosine-protein kinase JAK1; assay: Inhibition of JAK1 in human CD14-positive cell monocytes isolated from human PBMC assessed as reduction in mature dendritic phenotype by measuring CD14 expression level at 100 nM measured after 5 days by CD14 APC staining based flow cytometry analysis; details: time 5.0 day
[36] = Inhibition of JAK/STAT signaling pathway in human U-937 cells assessed as inhibition of IL-13 stimulated STAT6 phosphorylation; assay type: cell-based
[37] = target: T1, Tyrosine-protein kinase JAK1; assay: Inhibition of N-terminal GST-tagged human recombinant JAK1 (866 to 1154 residues) expressed in insect cells using FITC-C6-KKHTDDGYMPMSPGVA-NH peptide as substrate incubated for 10 mins measured after 90 mins in presence of ATP by caliper mobility shift assay
[38] = Efflux ratio of apparent permeability across apical to basolateral side in human Caco-2 cells at pH 7.4; assay type: ADME, cell-based; details: Caco-2, pH 7.4
[39] = system: CD14-positive cell; assay: as §1; assay type: cell-based; details: time 35-75 min
[40] = 1-octanol/aqueous phosphate buffer, read-out: logD

T1 sequence (P23458 whole entry): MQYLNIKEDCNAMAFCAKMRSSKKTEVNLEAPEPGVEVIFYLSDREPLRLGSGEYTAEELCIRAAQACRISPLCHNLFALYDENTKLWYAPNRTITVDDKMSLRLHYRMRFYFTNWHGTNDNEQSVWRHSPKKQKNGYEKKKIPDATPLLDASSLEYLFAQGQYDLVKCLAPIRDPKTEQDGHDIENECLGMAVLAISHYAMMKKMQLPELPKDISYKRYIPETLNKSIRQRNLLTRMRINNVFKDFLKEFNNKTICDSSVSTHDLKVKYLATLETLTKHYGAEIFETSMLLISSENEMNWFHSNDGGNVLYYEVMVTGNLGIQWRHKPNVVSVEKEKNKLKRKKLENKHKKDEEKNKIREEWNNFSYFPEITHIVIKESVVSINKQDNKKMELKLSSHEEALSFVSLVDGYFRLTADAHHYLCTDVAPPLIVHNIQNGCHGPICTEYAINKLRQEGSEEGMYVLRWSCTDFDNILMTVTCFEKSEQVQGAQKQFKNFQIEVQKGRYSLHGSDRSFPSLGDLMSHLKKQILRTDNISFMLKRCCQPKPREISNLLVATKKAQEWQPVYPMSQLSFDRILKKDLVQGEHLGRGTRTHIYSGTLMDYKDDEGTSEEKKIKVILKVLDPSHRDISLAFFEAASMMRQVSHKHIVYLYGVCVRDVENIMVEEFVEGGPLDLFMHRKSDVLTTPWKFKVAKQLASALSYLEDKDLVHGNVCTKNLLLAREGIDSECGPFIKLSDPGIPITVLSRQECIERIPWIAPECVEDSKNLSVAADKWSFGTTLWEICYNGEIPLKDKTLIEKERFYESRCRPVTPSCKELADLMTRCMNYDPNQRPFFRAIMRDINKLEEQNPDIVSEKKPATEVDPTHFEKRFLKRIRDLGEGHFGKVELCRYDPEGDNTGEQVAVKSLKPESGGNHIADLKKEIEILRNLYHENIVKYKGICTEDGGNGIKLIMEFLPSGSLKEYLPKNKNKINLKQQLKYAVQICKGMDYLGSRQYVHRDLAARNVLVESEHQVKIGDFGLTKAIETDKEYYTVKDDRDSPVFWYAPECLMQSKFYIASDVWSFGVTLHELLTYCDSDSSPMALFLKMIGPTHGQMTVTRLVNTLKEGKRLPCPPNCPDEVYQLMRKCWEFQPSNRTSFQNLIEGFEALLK
Non-receptor tyrosine-protein kinase TYK2, sequence (P29597 whole entry, the tested form may be a part): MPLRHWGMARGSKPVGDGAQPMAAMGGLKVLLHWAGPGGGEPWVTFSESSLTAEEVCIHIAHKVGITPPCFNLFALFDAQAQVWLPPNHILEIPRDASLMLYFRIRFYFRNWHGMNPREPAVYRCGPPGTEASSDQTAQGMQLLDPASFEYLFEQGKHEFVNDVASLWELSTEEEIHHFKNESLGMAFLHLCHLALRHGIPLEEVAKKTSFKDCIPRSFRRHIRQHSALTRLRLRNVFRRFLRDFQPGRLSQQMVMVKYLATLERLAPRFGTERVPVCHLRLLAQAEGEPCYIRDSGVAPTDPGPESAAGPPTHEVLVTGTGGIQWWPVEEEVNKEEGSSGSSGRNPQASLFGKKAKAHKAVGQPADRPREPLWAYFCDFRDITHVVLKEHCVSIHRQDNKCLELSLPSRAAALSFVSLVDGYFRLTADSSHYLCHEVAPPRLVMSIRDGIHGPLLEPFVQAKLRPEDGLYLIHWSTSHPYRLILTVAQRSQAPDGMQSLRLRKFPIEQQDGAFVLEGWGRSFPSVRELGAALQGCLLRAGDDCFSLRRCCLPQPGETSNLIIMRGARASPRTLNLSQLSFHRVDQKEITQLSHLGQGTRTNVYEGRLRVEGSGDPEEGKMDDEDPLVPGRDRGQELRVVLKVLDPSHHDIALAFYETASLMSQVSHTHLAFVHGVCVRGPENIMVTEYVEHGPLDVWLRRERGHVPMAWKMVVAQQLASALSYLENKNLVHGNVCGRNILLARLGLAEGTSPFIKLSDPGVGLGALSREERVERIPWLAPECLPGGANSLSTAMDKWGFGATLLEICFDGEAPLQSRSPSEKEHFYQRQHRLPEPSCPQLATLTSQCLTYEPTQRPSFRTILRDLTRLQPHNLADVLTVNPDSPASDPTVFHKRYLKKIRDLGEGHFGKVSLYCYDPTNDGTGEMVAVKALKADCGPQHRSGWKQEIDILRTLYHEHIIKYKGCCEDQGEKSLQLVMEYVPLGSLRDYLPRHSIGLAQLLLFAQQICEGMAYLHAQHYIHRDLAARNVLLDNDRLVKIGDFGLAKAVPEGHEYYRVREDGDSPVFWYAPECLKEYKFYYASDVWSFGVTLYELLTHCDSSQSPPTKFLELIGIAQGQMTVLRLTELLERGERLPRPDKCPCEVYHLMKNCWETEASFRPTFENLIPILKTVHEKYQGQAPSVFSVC

| IC50 [2] | Vd [9] | solubility [11] | Drug uptake [12] | IC50 [16] | Activity [17] | fraction unbound [22] | AUC(0-t) [24] | solubility thermodynamic at 24 h [29] | Papp A→B [33] | SMILES | inhibition [3] | Activity [4] | Activity [5] | inhibition [18] | Activity [19] | inhibition [20] | Activity [21] | inhibition [23] | inhibition [28] | Activity [34] | other results |
| --- | --- | --- | --- | --- | --- | --- | --- | --- | --- | --- | --- | --- | --- | --- | --- | --- | --- | --- | --- | --- | --- |
| 21 nM | 11 L/kg | 6 µM (≈ 3.6 µg/mL) | Active | 24 nM | Active | 0.08 | 8.6 µM·h | 7 µM (≈ 4.2 µg/mL) | 2.7 ×10⁻⁶ cm/s | COC[C@H](C(=O)Nc1cccc2c(-c3nc(Nc4cccc(S(C)(=O)=O)c4F)ncc3F)c[nH]c12)N1CCN(C)CC1 [LONDAMOCITINIB] | Dose-Dependent Effect | Non-Toxic | Dose-Dependent Effect | Dose-Dependent Effect | Non-Toxic | Dose-Dependent Effect | Dose-Dependent Effect | Dose-Dependent Effect | Dose-Dependent Effect | Non-Toxic | IC50 [1]: 28 nM; Drug uptake [6]: Active; microsomal CLint [7]: 25 µL/min/mg; inhibition [8]: Dose-Dependent Effect; hepatocyte CLint [10]: 1.3 µL/min/1e6 cells; Vdss [13]: 9.9 L/kg; IC50 [14]: 20 nM; IC50 [15]: 0.54 nM; bioavailability [25]: 44%; IC50 [26]: 657 nM; hepatocyte CLint [27]: 6.9 µL/min/1e6 cells; half-life [30]: 4.7 h; logD ([31]; octanol/water): 2.6; IC50 [32]: > 10000 nM; Activity [35]: Active |
| – | – | 9 µM (≈ 5.25 µg/mL) | – | 27 nM | – | 0.05 | – | – | – | CC[C@H](C(=O)Nc1cccc2c(-c3nc(Nc4cccc(S(C)(=O)=O)c4F)ncc3F)c[nH]c12)N1CCN(C)CC1 | – | – | – | – | – | – | – | – | – | – | IC50 [36]: 43 nM; IC50 [37]: ≤ 3 nM; logD [31, 40]: 3.3 |
| – | 9.2 L/kg | 15 µM (≈ 8.49 µg/mL) | Active | 22 nM | – | 0.06 | 1.5 µM·h | 15 µM (≈ 8.49 µg/mL) | 4.5 ×10⁻⁶ cm/s | Cc1cnc(Nc2cccc(S(C)(=O)=O)c2F)nc1-c1c[nH]c2c(NC(=O)[C@@H](C)N3CCN(C)CC3)cccc12 | – | – | – | – | – | – | – | – | – | – | efflux ratio [38]: 4.9; IC50 [36]: 32 nM; IC50 [37]: ≤ 4 nM; logD [31, 40]: 2.5 |
| 134 nM | – | – | – | – | Active | – | – | – | – | C=CC(=O)Nc1cc(-c2ncnc3[nH]cc(C(=O)OCC)c23)ccc1C | Dose-Dependent Effect | Non-Toxic | Dose-Dependent Effect | Dose-Dependent Effect | Non-Toxic | Dose-Dependent Effect | Dose-Dependent Effect | Dose-Dependent Effect | Dose-Dependent Effect | Non-Toxic | inhibition [39]: inactive; Activity [35]: Active |
